Source: ChEMBL document CHEMBL1141099, “Discovery of N-(2,6-dimethylphenyl)-substituted semicarbazones as anticonvulsants: hybrid pharmacophore-based design” (2005)

Assays:
Mus musculus [1] = test: Post treatment immobility time for CNS study using Porsolt's swimpool test at a dose of 100 mg/Kg after 1 hr when given i.p., in mice (No. of animals 6); Control (24h before) 146
Rattus norvegicus [2] = species: Rattus norvegicus; test: Ex vitro percentage inhibition activity against GABA-T enzyme at a concentration of 1.25 uM after 3 h; format: functional
Mus musculus [3] = test: Mean sleeping time evaluated for CNS study using the pentobarbital-induced narcosis model at a dose of 100 mg/Kg when given i.p., in mice (No. of animals 6)
Rattus norvegicus [4] = test: Effect on GABA level in rat whole brain concentration after 2 hr post-treatment at a dose of 100 mg/Kg when given i.p.; Control 48.4; format: functional
Mus musculus [5] = test: Minimum dose required for anticonvulsant activity when given i.p., at 4 hr in mice upon maximal electroshock seizure; format: functional
Mus musculus [6] = test: Minimum dose required for anticonvulsant activity when given i.p., at 0.5 hr in mice upon subcutaneous pentylenetetrazole seizure; format: functional
Mus musculus [7] = test: Post treatment activity score for CNS study using a actophotometer at a dose of 100 mg/Kg after 0.5 hr when given i.p., in mice (No. of animals 6); Control (24h before) 268
Rattus norvegicus [8] = test: Effect on GABA level in rat whole brain concentration after 7 days post-treatment at a dose of 30 mg/Kg when given orally; Control 50.5; format: functional
[9] = biological target: 4-aminobutyrate aminotransferase, mitochondrial (Rattus norvegicus) (UniProt P50554); test: In vitro percentage inhibition activity against GABA-T enzyme at a concentration of 5 uM after 4.5 h
Rattus norvegicus [10] = test: Enzymatic activity to assess the increase in level of SGPT at a dose of 30 mg/Kg for 14 days when given p.o., in 6 rats; Control 45.0; format: functional
Rattus norvegicus [11] = test: Number of rats protected at a dose of 30 mg/Kg when given oral at 0.5 hr upon maximal electroshock seizure; Total number of rats = 4; format: functional
Rattus norvegicus [12] = test: Effective dose required for anticonvulsant activity when given orally at 2 h in rat upon maximal electroshock seizure; format: functional; details: po
Rattus norvegicus [13] = species: Rattus norvegicus; test: Ex vitro percentage inhibition activity against GABA-T enzyme at a concentration of 1.25 uM after 6 h; format: functional
Rattus norvegicus [14] = test: Toxic dose observed for anticonvulsant activity when given orally at 2 hr in rat upon neurotoxicity seizure; format: functional; details: po
[15] = biological target: 4-aminobutyrate aminotransferase, mitochondrial (Rattus norvegicus) (UniProt P50554); test: In vitro percentage inhibition activity against GABA-T enzyme at a concentration of 5 uM after 6 h
Mus musculus [16] = test: Minimum dose required for anticonvulsant activity when given i.p., at 0.5 hr in mice upon maximal electroshock seizure; format: functional
Rattus norvegicus [17] = test: Enzymatic activity to assess the increase in level of SGOT at a dose of 30 mg/Kg for 14 days when given p.o., in 6 rats; Control 73.1; format: functional
Rattus norvegicus [18] = species: Rattus norvegicus; test: Protective index between effective dose and toxic dose in rat; format: functional
Rattus norvegicus [19] = test: Number of rats protected at a dose of 30 mg/Kg when given oral at 1 hr upon maximal electroshock seizure; Total number of rats = 4; format: functional
Mus musculus [20] = test: Post treatment activity score for CNS study using a actophotometer at a dose of 100 mg/Kg after 1 hr when given i.p., in mice (No. of animals 6); Control (24h before) 268
Rattus norvegicus [21] = test: Number of rats protected at a dose of 30 mg/Kg when given oral at 0.25 hr upon maximal electroshock seizure; Total number of rats = 4; format: functional
Mus musculus [22] = test: Minimum dose required for anticonvulsant activity when given i.p., at 2 hr in mice upon subcutaneous strychnine seizure; format: functional
Mus musculus [23] = test: Minimum dose required for anticonvulsant activity when given i.p., at 0.5 hr in mice upon subcutaneous strychnine seizure; format: functional
Rattus norvegicus [24] = test: Number of rats protected at a dose of 30 mg/Kg when given oral at 2 hr upon maximal electroshock seizure; Total number of rats = 4; format: functional
Rattus norvegicus [25] = species: Rattus norvegicus; test: Ex vitro percentage inhibition activity against GABA-T enzyme at a concentration of 1.25 uM after 4.5 h; format: functional
Rattus norvegicus [26] = test: Number of rats protected at a dose of 30 mg/Kg when given oral at 4 hr upon maximal electroshock seizure; Total number of rats = 4; format: functional
[27] = biological target: 4-aminobutyrate aminotransferase, mitochondrial (Rattus norvegicus) (UniProt P50554); test: In vitro percentage inhibition activity against GABA-T enzyme at a concentration of 5 uM after 3 h
[28] = biological target: 4-aminobutyrate aminotransferase, mitochondrial (Rattus norvegicus) (UniProt P50554); test: In vitro percentage inhibition activity against GABA-T enzyme at a concentration of 0.625 uM after 6 h
Mus musculus [29] = test: Post treatment activity score for CNS study using a actophotometer at a dose of 100 mg/Kg after 1 hr when given i.p., in mice (No. of animals 6); Control (24h before) 245
Mus musculus [30] = test: Post treatment immobility time for CNS study using Porsolt's swimpool test at a dose of 100 mg/Kg after 1 hr when given i.p., in mice (No. of animals 6); Control (24h before) 182
[31] = biological target: 4-aminobutyrate aminotransferase, mitochondrial (Rattus norvegicus) (UniProt P50554); test: In vitro percentage inhibition activity against GABA-T enzyme at a concentration of 0.625 uM after 4.5 h
[32] = biological target: 4-aminobutyrate aminotransferase, mitochondrial (Rattus norvegicus) (UniProt P50554); test: In vitro percentage inhibition activity against GABA-T enzyme at a concentration of 0.625 uM after 3 h
Mus musculus [33] = test: Post treatment activity score for CNS study using a actophotometer at a dose of 100 mg/Kg after 0.5 hr when given i.p., in mice (No. of animals 6); Control (24h before) 245
Rattus norvegicus [34] = test: Effective dose required for anticonvulsant activity when given i.p., at 2 hr in rat upon maximal electroshock seizure; format: functional; details: ip
Mus musculus [35] = test: Minimum dose required for anticonvulsant activity when given i.p., at 0.5 hr in mice upon neurotoxicity seizure using rotarod test; format: functional
Rattus norvegicus [36] = test: Toxic dose observed for anticonvulsant activity when given i.p., at 2 hr in rat upon neurotoxicity seizure; format: functional; details: ip
Mus musculus [37] = test: Post treatment activity score for CNS study using a actophotometer at a dose of 100 mg/Kg after 1 h when given i.p., in mice (No. of animals 6); Control (24h before) 238
Mus musculus [38] = test: Post treatment immobility time for CNS study using Porsolt's swimpool test at a dose of 100 mg/Kg after 1 hr when given i.p., in mice (No. of animals 6); Control (24h before) 143
Rattus norvegicus [39] = species: Rattus norvegicus; test: Ex vitro percentage inhibition activity against GABA-T enzyme at a concentration of 2.5 uM after 3 h; format: functional
Rattus norvegicus [40] = test: Effective dose required for anticonvulsant activity when given i.p., at 1 hr in rat upon maximal electroshock seizure; format: functional; details: ip
Rattus norvegicus [41] = species: Rattus norvegicus; test: Ex vitro percentage inhibition activity against GABA-T enzyme at a concentration of 2.5 uM after 6 h; format: functional
Mus musculus [42] = test: Post treatment activity score for CNS study using a actophotometer at a dose of 100 mg/Kg after 0.5 hr when given i.p., in mice (No. of animals 6); Control (24h before) 238
Rattus norvegicus [43] = species: Rattus norvegicus; test: Ex vitro percentage inhibition activity against GABA-T enzyme at a concentration of 2.5 uM after 4.5 h; format: functional
Rattus norvegicus [44] = test: Toxic dose observed for anticonvulsant activity when given i.p., at 1 h in rat upon neurotoxicity seizure; format: functional; details: ip
Rattus norvegicus [45] = test: Seizure score before administration in rat 1 at dose 100 mg/Kg when given i.p., upon preliminary hippocampal-kindling screen; format: functional, Hippocampus
Rattus norvegicus [46] = test: Seizure score before administration in rat 2 at dose 100 mg/Kg when given i.p., upon preliminary hippocampal-kindling screen; […]; format: functional, Hippocampus
Mus musculus [47] = test: Post treatment activity score for CNS study using a actophotometer at a dose of 100 mg/Kg after 0.5 hr when given i.p., in mice (No. of animals 6); Control (24h before) 202
Rattus norvegicus [48] = test: After discharge duration time when before administered in rat 1 at dose 100 mg/Kg when given i.p., upon preliminary hippocampal-kindling screen; Prodrug time 26-42 s; format: functional, Hippocampus
Rattus norvegicus [49] = test: After discharge duration time when after administered in rat 1 at dose 100 mg/Kg when given i.p., upon preliminary hippocampal-kindling screen; format: functional, Hippocampus
Mus musculus [50] = test: Post treatment activity score for CNS study using a actophotometer at a dose of 100 mg/Kg after 1 hr when given i.p., in mice (No. of animals 6); Control (24h before) 202
Rattus norvegicus [51] = test: After discharge duration time when before administered in rat 2 at dose 100 mg/Kg when given i.p., upon preliminary hippocampal-kindling screen; Prodrug time 11-39 s; format: functional, Hippocampus
Mus musculus [52] = test: Post treatment immobility time for CNS study using Porsolt's swimpool test at a dose of 100 mg/Kg after 1 hr when given i.p., in mice (No. of animals 6); Control (24h before) 173
Rattus norvegicus [53] = species: Rattus norvegicus; test: Ex vitro percentage inhibition activity against GABA-T enzyme at a concentration of 5 uM after 4.5 h; format: functional
Rattus norvegicus [54] = test: After discharge duration time when after administered in rat 2 at dose 100 mg/Kg when given i.p., upon preliminary hippocampal-kindling screen; format: functional, Hippocampus
Rattus norvegicus [55] = species: Rattus norvegicus; test: Ex vitro percentage inhibition activity against GABA-T enzyme at a concentration of 5 uM after 6 h; format: functional
Rattus norvegicus [56] = test: Seizure score after administration in rat 2 at dose 100 mg/Kg when given i.p., upon preliminary hippocampal-kindling screen; format: functional, Hippocampus
Rattus norvegicus [57] = test: Seizure score after administration in rat 1 at dose 100 mg/Kg when given i.p., upon preliminary hippocampal-kindling screen; format: functional, Hippocampus
Rattus norvegicus [58] = species: Rattus norvegicus; test: Ex vitro percentage inhibition activity against GABA-T enzyme at a concentration of 5 uM after 3 h; format: functional

Chain of 4-aminobutyrate aminotransferase, mitochondrial (Rattus norvegicus) (P50554 28-500 limits assumed): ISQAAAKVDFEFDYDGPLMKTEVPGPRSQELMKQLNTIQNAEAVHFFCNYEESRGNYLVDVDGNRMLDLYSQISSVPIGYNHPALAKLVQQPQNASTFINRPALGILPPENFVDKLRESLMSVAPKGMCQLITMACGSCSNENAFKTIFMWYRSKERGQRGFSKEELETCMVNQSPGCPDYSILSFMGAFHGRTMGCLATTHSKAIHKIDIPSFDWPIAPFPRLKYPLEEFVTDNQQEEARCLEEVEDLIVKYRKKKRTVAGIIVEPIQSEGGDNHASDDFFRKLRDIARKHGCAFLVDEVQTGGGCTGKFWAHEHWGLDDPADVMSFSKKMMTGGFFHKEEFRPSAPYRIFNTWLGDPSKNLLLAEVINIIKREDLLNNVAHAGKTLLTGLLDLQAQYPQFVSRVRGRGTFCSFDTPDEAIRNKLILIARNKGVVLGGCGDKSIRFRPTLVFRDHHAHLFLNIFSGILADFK

Structure (SMILES)	Inhibition (Rattus norvegicus [2]) [%]	Time (Mus musculus [3]) [min]	Activity (Rattus norvegicus [4])	MES (Mus musculus [5]) [mg/kg]	PTZ seizure (Mus musculus [6]) [mg/kg]	Activity (Rattus norvegicus [8])	inhibition [9] [%]	Activity (Rattus norvegicus [11])	Inhibition (Rattus norvegicus [13]) [%]	inhibition [15] [%]	MES (Mus musculus [16]) [mg/kg]	PI (Rattus norvegicus [18])	Activity (Rattus norvegicus [19])	Activity (Rattus norvegicus [21])	STY seizure (Mus musculus [22]) [mg/kg]	STY seizure (Mus musculus [23]) [mg/kg]	Activity (Rattus norvegicus [24])	Inhibition (Rattus norvegicus [25]) [%]	Activity (Rattus norvegicus [26])	inhibition [27] [%]	also measured
Cc1ccc(/C=N/NC(=O)Nc2c(C)cccc2C)cc1	32	150	90.2 ug/100mg of tissue	300	300	100 ug/100mg of tissue	70	2	48	0	100	>3.62	3	0	100	100	4	75	3	55	Activity (Mus musculus [1]): 225; Activity (Mus musculus [7]): 175; SGPT activity (Rattus norvegicus [10]): 47.3 units/mL; ED50 (Rattus norvegicus [12]): 33.1 mg/kg; TD50 (Rattus norvegicus [14]): > 120 mg/kg; SGOT activity (Rattus norvegicus [17]): 70.2 units/mL; Activity (Mus musculus [20]): 133
Cc1cccc(C)c1NC(=O)N/N=C/c1ccc(N(C)C)cc1	0	–	75.5 ug/100mg of tissue	300	300	68.1 ug/100mg of tissue	–	2	9	–	100	>13.6	2	1	100	100	3	0	4	–	inhibition [28]: 0%; Activity (Mus musculus [29]): 124; Activity (Mus musculus [30]): 207; inhibition [31]: 64%; inhibition [32]: 0%; Activity (Mus musculus [33]): 147; ED50 (Rattus norvegicus [34]): 18.3 mg/kg; NT (Mus musculus [35]): 300 mg/kg; TD50 (Rattus norvegicus [36]): > 250 mg/kg
COc1cc(/C=N/NC(=O)Nc2c(C)cccc2C)ccc1O	–	68	91.2 ug/100mg of tissue	300	300	106 ug/100mg of tissue	56	3	–	23	100	>4.4	4	3	100	30	3	–	4	0	Activity (Mus musculus [37]): 130; Activity (Mus musculus [38]): 207; Inhibition (Rattus norvegicus [39]): 0%; ED50 (Rattus norvegicus [40]): 26.2 mg/kg; Inhibition (Rattus norvegicus [41]): 12%; Activity (Mus musculus [42]): 157; Inhibition (Rattus norvegicus [43]): 56%; TD50 (Rattus norvegicus [44]): > 117 mg/kg
Cc1cccc(C)c1NC(=O)N/N=C/c1cccc([N+](=O)[O-])c1	–	147	79.8 ug/100mg of tissue	300	300	87.9 ug/100mg of tissue	–	1	–	–	100	>4	3	1	100	30	1	–	3	–	inhibition [28]: 0%; Score (Rattus norvegicus [45]): 5; Score (Rattus norvegicus [46]): 4; Activity (Mus musculus [47]): 129; inhibition [31]: 0%; ADD (Rattus norvegicus [48]): 42 s; inhibition [32]: 88%; ADD (Rattus norvegicus [49]): 52 s; Activity (Mus musculus [50]): 131; ADD (Rattus norvegicus [51]): 39 s; ED50 (Rattus norvegicus [40]): 29.7 mg/kg; Activity (Mus musculus [52]): 231; Inhibition (Rattus norvegicus [53]): 0%; TD50 (Rattus norvegicus [44]): > 120 mg/kg; ADD (Rattus norvegicus [54]): 59 s; Inhibition (Rattus norvegicus [55]): 0%; Score (Rattus norvegicus [56]): 5; Score (Rattus norvegicus [57]): 1; NT (Mus musculus [35]): 300 mg/kg; Inhibition (Rattus norvegicus [58]): 0%
